Data taken from PMC11659602, “Discovering covalent cyclic peptide inhibitors of peptidyl arginine deiminase 4 (PADI4) using mRNA-display with a genetically encoded electrophilic warhead” (Communications Chemistry, 2024).
“And” between values parts separate entries of the source, which are not always exact repeats. Identical values can stand only once. Like-named read-outs stand apart in the source and are kept apart here. Where a SMILES comes first, the peptide text is derived from it. Bridges are numbered along the chain shown (N, C = ends). [ ]: non-standard residue; d: D form. Orn(fluoroacetimidoyl) = N=C(CF)NCCC[C@H](N)C(=O)O

Legend:
PADI4 [1] = target: T1, PADI4 (Homo sapiens, UniProt Q9UM07); experiment: COLDER inhibition assay, BAEE substrate, with or without 1 h preincubation; type: biochemical; settings: for IC50: COLDER; for remaining activity at 0.003 µM: peptide 0.003 µM; for remaining activity at 0.01 µM: peptide 0.01 µM; for remaining activity at 0.03 µM: peptide 0.03 µM; for remaining activity at 0.1 µM: peptide 0.1 µM; for remaining activity at 0.3 µM: peptide 0.3 µM; for remaining activity at 1 µM: peptide 1 µM; for remaining activity at 3 µM: peptide 3 µM; for remaining activity at 10 µM: peptide 10 µM
T1 construct: His6; made in house
Procedure: PADI4 citrullination activity was analysed using the COLDER assay in 96-well plates. Peptide dilutions were prepared from a 500 µM stock, to give a 10 times concentrated dilution series (500 µM, 300 µM, 100 µM, 30 µM, 10 µM, 3 µM, 1 µM, 0.3 µM, 0.1 µM and 0.03 µM) in COLDER buffer (50 mM HEPES, 150 mM NaCl and 2 mM DTT, pH 7.5) containing 1% DMSO. In triplicate, each was diluted 10-fold further when mixed with 50 nM His-PADI4, 0.6 mg/mL BSA and 10 mM CaCl2, in COLDER buffer. With or without one hour of incubation, 10 mM N^α-Benzoyl-L-arginine ethyl ester hydrochloride (BAEE, Merck) was added to initiate the reaction (50 µL final volume). After 30 min at rt, EDTA (50 mM final concentration) was used to quench the reaction and 200 µL of COLDER solution containing 20 mM Diacetyl monoxime/2,3-butanedione monoxime (Merck), 0.5 mM Thiosemicarbazide (Acros Organics), 2.25 M H3PO4, 4.5 M H2SO4 and 1.5 mM NH4Fe(SO4)2.12H2O was added to each well. Samples were incubated for 20 min at 95 °C before measuring absorbance at 540 nm on a CLARIOstar Plus (BMG LABTECH). Data analysis was performed with GraphPad Prism. Data are presented as the average ± standard error of the mean from at least two independent replicates.

PADI4 [2] = target: T1, PADI4; experiment: Surface plasmon resonance (SPR), single cycle kinetics; type: binding; settings: for Ki: k-1/k+1
Procedure: S8. Surface plasmon resonance (SPR)
Using a Biacore S200 (GE Healthcare), biotinylated His-PADI4 (80 nM) was immobilised on a CAP chip (GE Healthcare) to a response unit of approx. 3000. At 25 °C, single cycle kinetics mode was used with 5 samples of a 3-fold dilution series of peptides PADI4_3_H4(2), cP4_2, […]
mM HEPES, 150 mM NaCl, 10 mM CaCl2, 0.05% Tween-20, 0.1% DMSO (pH 7.5). After each cycle, regeneration of the chip was carried out as per the manufacturer’s protocol. Data were analysed with the Biacore S200 Evaluation Software, each in triplicate. Warhead-containing peptides were analysed using the two-state reaction model, with the rate constant for the reverse second step (k-2) set to zero. The equilibrium constant of the reversible binding step, Ki, was calculated as the ratio of k-1/k+1 and the rate constant of the irreversible chemical step, kinact, as k+2. The Arg4, Cit4 and Me4 peptides were fitted using a 1:1 binding model. […]

PADI4 [3] = target: T1, PADI4; experiment: Incubation time-dependent COLDER assay IC50(t), Krippendorff fit; type: biochemical; settings: for IC50: replicates, read-out: apparent IC50; for Ki / kinact: Krippendorff fit of IC50 vs time
Procedure: To determine KI and kinact of covalent peptide inhibitors, COLDER assays were used[52]. Peptide dilutions were prepared using 5-fold dilutions from 500 µM and 300 µM to 0.8 µM and 2.4 µM, respectively, at 1% DMSO in COLDER buffer (50 mM HEPES, 150 mM NaCl and 2 mM DTT, pH 7.5). The 9 peptide dilutions were added to a 96-well plate, alongside a 1% DMSO control. An equal volume of 10 mM BAEE was added to each well and the solution was homogenised by pipette mixing. This was mixed with 50 nM His-PADI4, 0.6 mg/mL BSA and 10 mM CaCl2, in COLDER buffer, to bring the final volume to 300 µL in each well. Alternatively, His-PAD1 (100 nM) /His-PADI2 (100 nM) /His-PADI3 (250 nM) were used. For assays with PADI1 and PADI3, 10 mM N^α-benzoyl-L-arginine methyl […] (BAME) was used as the substrate instead of BAEE[48],[58],[59]. At 15-minute intervals, for 5 timepoints, 50 µL of solution was taken from each well and quenched with 10 µL EDTA (300 mM). 200 µL of COLDER solution containing 20 mM diacetyl monoxime/2,3-butanedione monoxime (Merck), 0.5 mM thiosemicarbazide (Acros Organics), 2.25 M H3PO4, 4.5 M H2SO4 and 1.5 mM NH4Fe(SO4)2.12H2O was added to each well. Samples were incubated for 20 min at 95 °C before measuring absorbance at 540 nm on a CLARIOstar Plus (BMG LABTECH). IC50 values for each time point were determined using non-linear regression with GraphPad Prism. Incubation time–dependent potency IC50(t) against incubation time was fitted to the Krippendorff equation (below) to determine KI and kinact using a Python script[53],[59]. […] IC50t=KI1+S/KM⋅2−2e^−ηIC50⋅kinact⋅t/ηIC50⋅kinact⋅t−1 WhereηIC50=IC50t/KI1+S/KM+IC50t

[4] = 1 h preincubation of peptide and PADI4, 10 mM CaCl2, read-out: IC50 Values 1 h preincubation
[5] = no preincubation of peptide and PADI4, 10 mM CaCl2, read-out: IC50 Values 0 h preincubation
[6] = T=0, values starred, read-out: PADI4 activity normalised to 0.1% DMSO
[7] = T=1, read-out: PADI4 activity normalised to 0.1% DMSO
[8] = T=0, read-out: PADI4 activity normalised to 0.1% DMSO
[9] = each replicate, read-out: k2 / kinact
[10] = two-state reaction model, k+2, read-out: SPR kinact (converted)

T1 sequence (Q9UM07 whole entry): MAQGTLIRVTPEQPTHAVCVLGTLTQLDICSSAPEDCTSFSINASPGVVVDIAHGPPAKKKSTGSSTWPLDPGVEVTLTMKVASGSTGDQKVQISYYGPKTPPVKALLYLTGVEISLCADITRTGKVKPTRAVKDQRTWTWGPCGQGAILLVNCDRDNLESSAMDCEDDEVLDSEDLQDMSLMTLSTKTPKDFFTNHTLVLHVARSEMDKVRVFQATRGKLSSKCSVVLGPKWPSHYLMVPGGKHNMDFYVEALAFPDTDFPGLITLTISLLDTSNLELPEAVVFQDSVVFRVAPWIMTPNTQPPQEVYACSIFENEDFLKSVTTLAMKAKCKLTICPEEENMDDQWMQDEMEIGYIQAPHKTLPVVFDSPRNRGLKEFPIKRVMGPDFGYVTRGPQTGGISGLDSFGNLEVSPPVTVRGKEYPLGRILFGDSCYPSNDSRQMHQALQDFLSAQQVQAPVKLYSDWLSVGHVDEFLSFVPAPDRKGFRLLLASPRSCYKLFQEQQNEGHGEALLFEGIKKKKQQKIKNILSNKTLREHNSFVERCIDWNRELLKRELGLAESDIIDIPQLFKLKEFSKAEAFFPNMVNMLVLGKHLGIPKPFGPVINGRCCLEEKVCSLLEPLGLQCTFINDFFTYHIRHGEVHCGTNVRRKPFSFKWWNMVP

| IC50 (PADI4 [1]; [4]) [µM] | IC50 (PADI4 [1]; [5]) [µM] | remaining activity at 0.003 µM (PADI4 [1]; [6]) [%] | remaining activity at 0.003 µM (PADI4 [1]; [7]) [%] | remaining activity at 0.01 µM (PADI4 [1]; [6]) [%] | remaining activity at 0.01 µM (PADI4 [1]; [7]) [%] | remaining activity at 0.03 µM (PADI4 [1]; [8]) [%] | remaining activity at 0.1 µM (PADI4 [1]; [8]) [%] | remaining activity at 0.3 µM (PADI4 [1]; [8]) [%] | remaining activity at 1 µM (PADI4 [1]; [8]) [%] | kinact/KI (PADI4 [2]) [M⁻¹ s⁻¹] | kinact (PADI4 [2]; [9]) [s⁻¹] | kinact (PADI4 [2]; [10]) [s⁻¹] | Ki (PADI4 [2]; two-state reaction model) [µM] | kinact/KI (PADI4 [3]) [M⁻¹ s⁻¹] | IC50 (PADI4 [3]; 15 mins) | IC50 (PADI4 [3]; 30 mins) | IC50 (PADI4 [3]; 45 mins) | IC50 (PADI4 [3]; 60 mins) | IC50 (PADI4 [3]; 75 mins) | SMILES | further results |
| --- | --- | --- | --- | --- | --- | --- | --- | --- | --- | --- | --- | --- | --- | --- | --- | --- | --- | --- | --- | --- | --- |
| 0.17 ± 0.01 | 11.8 ± 4.9 | 97.2 | 95 | 94.1 | 89 | 97.8 | 99.6 | 99.2 | 97 | 1780 | 0.0013 | 0.0011 | 0.62 ± 0.06 | 283 | 51.7 µM and 33.8 µM and 43.9 µM | 22.5 µM and 16.4 µM and 14.6 µM | 13.7 µM (2×) and 11.2 µM | 11.9 µM and 10 µM and 8.76 µM | 9.43 µM and 9.54 µM and 8.45 µM | CC[C@H](C)[C@H](NC(=O)[C@H](Cc1c[nH]c2ccccc12)NC(=O)[C@H](CCC(=O)O)NC(=O)[C@@H]1CSCC(=O)N[C@H](Cc2ccc(O)cc2)C(=O)N[C@@H](C(C)C)C(=O)N[C@@H](Cc2ccc(O)cc2)C(=O)N[C@@H](CCCNC(=N)CF)C(=O)N[C@@H](CC(=O)O)C(=O)N1)C(=O)N[C@@H](CC(N)=O)C(=O)N[C@@H](CCCNC(=N)N)C(=O)N[C@@H](C)C(=O)NCC(N)=O [cP4_165, yVY(2)DCEWINRAG] ({CH2CO}-[dY]VY[Orn(fluoroacetimidoyl)]DCEWINRAG-NH2; thioether N-6) | remaining activity at 0.3 µM (PADI4 [1]; [7]): 24.1%; Ki (PADI4 [3]): 8.9 ± 1.1 µM; kinact (PADI4 [3]): 0.00267 s⁻¹ |
| 0.093 ± 0.002 | 3.1 ± 0.01 | 93.1 | 98.1 | 92 | 81.1 | 91.3 | 90.6 | 91.5 | 75.7 | 33400 | 0.0041 | 0.00383 | 0.12 ± 0.1 | 1450 | 7.24 µM and 6.94 µM and 5.53 µM | 3.82 µM and 3.29 µM and 3.6 µM | 2.72 µM and 2.38 µM and 2.64 µM | 2.15 µM and 2.09 µM and 2.33 µM | 1.96 µM and 1.81 µM and 2.18 µM | N=C(N)NCCC[C@@H]1NC(=O)[C@H](CCCCN)NC(=O)[C@H](CC(N)=O)NC(=O)[C@H](Cc2ccccc2)NC(=O)[C@H](CC(=O)O)NC(=O)[C@H](Cc2c[nH]c3ccccc23)NC(=O)[C@H](CC(N)=O)NC(=O)[C@H](CCCNC(=N)CF)NC(=O)[C@H](Cc2ccc(O)cc2)NC(=O)[C@H](Cc2c[nH]c3ccccc23)NC(=O)[C@@H](Cc2ccc(O)cc2)NC(=O)CSC[C@@H](C(=O)NCC(N)=O)NC1=O [cP4_10, yWY(2)NWDFNKRCG] ({CH2CO}-[dY]WY[Orn(fluoroacetimidoyl)]NWDFNKRCG-NH2; thioether N-12) | remaining activity at 0.03 µM (PADI4 [1]; [7]): 82.2%; remaining activity at 3 µM (PADI4 [1]; [8]): 48.4%; remaining activity at 10 µM (PADI4 [1]; [8]): 19.7%; k2 / kinact (PADI4 [2]; each replicate): 0.0034 s⁻¹; Ki (PADI4 [3]): 1.5 ± 0.3 µM; kinact (PADI4 [3]): 0.00217 s⁻¹ |
| 0.065 ± 0.007 | – | 103 | 102 | 100 | 83.7 | 102 | 101 | 96.2 | 77.4 | 68000 | 0.001 | 0.00102 | 0.015 ± 0.002 | 2480 | 5.47 µM and 4.15 µM and 5.26 µM | 2.46 µM and 1.82 µM and 2 µM | 1.86 µM and 1.33 µM and 1.52 µM | 1.43 µM and 1.06 µM and 1.16 µM | 1.24 µM and 1.01 µM and 1.09 µM | N=C(N)NCCC[C@@H]1NC(=O)[C@H](Cc2ccc(O)cc2)NC(=O)[C@H](Cc2c[nH]cn2)NC(=O)[C@H](CCCNC(=N)CF)NC(=O)[C@H](CC(=O)O)NC(=O)[C@H](CCCNC(=N)N)NC(=O)[C@@H](Cc2ccc(O)cc2)NC(=O)CSC[C@@H](C(=O)NCC(N)=O)NC(=O)[C@H](Cc2ccc(O)cc2)NC(=O)[C@H](CCCCN)NC(=O)[C@@H]2CCCN2C(=O)[C@H](Cc2c[nH]cn2)NC1=O [PADI4_3_H4(2), yRD(2)HYRHPKYCG] ({CH2CO}-[dY]RD[Orn(fluoroacetimidoyl)]HYRHPKYCG-NH2; thioether N-12) | remaining activity at 0.03 µM (PADI4 [1]; [7]): 82.9%; remaining activity at 0.1 µM (PADI4 [1]; [7]): 29%; remaining activity at 3 µM (PADI4 [1]; [8]): 41.2%; remaining activity at 10 µM (PADI4 [1]; [8]): 18.1%; k2 / kinact (PADI4 [2]; each replicate, listed as P4_3_H4(2)): 0.0013 s⁻¹; Ki (PADI4 [3]): 1.1 ± 0.2 µM; kinact (PADI4 [3]): 0.00267 s⁻¹ |
| 0.87 ± 0.06 | > 50 | 107 | – | 107 | – | 107 | 108 | 106 | 107 | 1530 | 0.0014 | 0.002 | 1.3 ± 0.5 | – | – | – | – | – | – | CC[C@H](C)[C@@H]1NC(=O)[C@@H](Cc2ccc(O)cc2)NC(=O)CSC[C@@H](C(=O)NCC(N)=O)NC(=O)[C@H](CO)NC(=O)[C@H](CCCNC(=N)CF)NC(=O)[C@H](CC(=O)O)NC(=O)[C@H](CCCNC(=N)CF)NC(=O)[C@H](CC(C)C)NC(=O)CNC(=O)[C@H](Cc2c[nH]c3ccccc23)NC1=O [cP4_2, yIWGL(2)D(2)SCG] ({CH2CO}-[dY]IWGL[Orn(fluoroacetimidoyl)]D[Orn(fluoroacetimidoyl)]SCG-NH2; thioether N-10) | remaining activity at 0.1 µM (PADI4 [1]; [7]): 93.3%; remaining activity at 0.3 µM (PADI4 [1]; [7]): 74.9%; remaining activity at 1 µM (PADI4 [1]; [7]): 42.9%; remaining activity at 3 µM (PADI4 [1]; [8]): 105%; remaining activity at 3 µM (PADI4 [1]; [7]): 7.63%; remaining activity at 10 µM (PADI4 [1]; [8]): 101%; remaining activity at 10 µM (PADI4 [1]; [7]): 3.92%; remaining activity at 30 µM (PADI4 [1]; peptide 30 µM, T=0, read-out: PADI4 activity normalised to 0.1% DMSO): 80.9%; remaining activity at 50 µM (PADI4 [1]; peptide 50 µM, T=0 (no preincubation), read-out: PADI4 activity normalised to 0.1% DMSO): 64.4%; k2 / kinact (PADI4 [2]; each replicate): 0.0026 s⁻¹ and 0.0019 s⁻¹ |
